Measured values reported in patent US6355671B1, “SULFONATED DERIVATIVES OF CYCLIC PHENOL SULFIDES, PROCESS FOR THE PREPARATION THEREOF, […] […] […] PHENOL SULFIDES, METHODS FOR […] RECOVERY […], AND DRUG COMPOSITIONS CONTAINING THE SULFIDES” (Cosmo Research Institute, priority 1997, dated 2002).

Legend:
[1] = tested on: MOLT-4 (T cell leukemia cell); settings: MOLT-4 cell density after 3 days of culture, read from FIG. 2
Description: In order to evaluate cytotoxicity of the cyclic phenol sulfide (III) in a human cell line, MOLT-4 (T cell leukemia cell, Riken Gene Bank accession number RCB 0206), was used in the test. The cyclic phenol sulfide (III) was dissolved in a medium (RPMI-1640 containing 10% FCS (fetal calf serum), kanamycin (5,000 U/ml) and streptomycin (5 mg/ml)) to a concentration of 2.5 mM, and the solution was made into 2-fold serial dilutions to prepare cyclic phenol sulfide (III)-containing medium samples having 11 steps of concentration. Each of the cyclic phenol sulfide (III)-containing medium samples was dispensed into wells of a 6-well plate in 2.5 ml, a MOLT-4 culture broth of 2×10^5 cells/ml was dispensed into the resulting wells in 2.5 ml, the cells were cultured at 37° C. for 3 days in a moist incubator containing 5% CO2, and then the cell density was measured using Celltac MEK-5254 (manufactured by NIHON KOHDEN).

Description for HIV-1: The cyclic phenol sulfide (III) was dissolved in the medium used in Example 8 to a concentration of 2.5 mM, and the solution was made into 2-fold serial dilutions to prepare cyclic phenol sulfide (III)-containing medium samples having 11 steps of concentration. Each of the cyclic phenol sulfide (III)-containing medium samples was dispensed into wells of a 6-well plate in 2.5 ml, a culture broth containing 1.64×10^5 cells/ml of MOLT-4 or 1.82×10^4 cells/ml of HIV-1-infected MOLT-4 was dispensed into the resulting wells in 2.5 ml, the cells were cultured at 37° C. for 3 days in a moist incubator containing 5% CO2, the resulting cell density was measured using Celltac MEK-5254 (manufactured by NIHON KOHDEN), and then a portion of the medium containing 10^6 cells was taken out to purify DNA. The number of HIV-1 DNA contained in 500 ng of the cell DNA was determined by competitive nested PCR.
Firstly, 500 ng of each cell DNA sample was mixed with 1 μM of the primers JA9 and JA12, 0.2 mM dNTP, 50 mM KCl, 10 mM Tris-HCl (pH 8.3), 4 mM MgCl2, 5,000 copies of the competitor and 2 units of Taq DNA polymerase manufactured by Roche), and the total volume was adjusted to 100 μl with Milli-Q water. […]

For `O=S(=O)([O-])c1cc2c(O)c(c1)Sc1cc(S(=O)(=O)[O-])cc(c1O)Sc1cc(S(=O)(=O)[O-])cc(c1O)Sc1cc(S(=O)(=O)[O-])cc(c1O)S2.[Na+].[Na+].[Na+].[Na+]` [cyclic phenol sulfide (III), sodium salt of 25,26,27,28-tetrahydroxy-2,8,14,20-tetrathia[19.3.1.1^3,71^9,131^15,19]octacosa-1(25),3,5,7(28),9,11,13(27),15,17,19(26),21,23-dodecaene-5,11,17,23-tetrasulfonic acid], the CC50 [1] was 700 µM, the IC50 (HIV-1; HIV-1 DNA concentration after 3 days of infection, MOLT-4 / HIV-1-infected MOLT-4 co-culture, read from FIG. 2) was 40 µM and the “therapeutic ratio (=CC50/IC50)” value (HIV-1; from Example 8 and Example 9) was 18.
